Series [1] relates to malignant pleural mesothelioma. The experiment in a line: Intrapleural administration in malignant pleural mesothelioma: indwelling catheter versus needle. More on the design: species or system human. As to conditions: in vivo. As for the experimental part: The first cycle of platinum drug by the present invention was administered 7 days after a baseline thoracoscopy. […] The starting fluid volume infused was 225 ml. Dosages of up to about 450 mg/M^2 are useful, but the empirical end point is compromised respiration such as shortness of breath. […] Repeated administrations were given every 3 to 4 weeks with attention to the presence or absence of a draining pleural effusion without loculation or (adhesions). That is a loculation surrounding the catheter entry must be broken u or carefully drained at the time of additional drug introduction to avoid hydrostatic pressure increases. […] If the fluid was still draining through the indwelling catheter, the patient received a third treatment seven days after the this thoracoscopy. […] While the course of treatment is within the skill of the medical professional with a view to the presenting condition of each patient, some initial parameters are noted. Intrapleural infusion is usefully held between consecutive cycles until the absolute granulocyte count is >1,500/mm^3 and platelets >100,000/mm^3 and complete recovery of non-hematological toxicities.

Series [2] concerns malignant pleural effusions. Particulars: human, in vivo.
Description: A Phase I trial using the procedures of the present invention employed L-NDDP administered by intrapleural administration in patients with malignant pleural effusions.
Therapy began with a starting dose was 75 mg/m^2. […] Four patients were treated at the highest tested dose of 550 mg/m^2.
For series [3] the following is noted: in vivo, iv; cited from earlier work.

Data on one substance can be found in US20020110601A1, “Antineoplastic platinum therapeutic method and composition” (priority 2000, published 2002).

With “liposomal-cis-bis-neodecanoato-trans-R,R-1,2-diaminocyclohexane platinum (II) [L-NDDP]”, the extravasation and sepsis result in series [1] is “avoided extravasation and sepsis”. Further, in series [2], the local pain entry is listed as “no local pain”; the toxicity entry was “mild nausea and vomiting”. Besides, in series [2] (iv), the systemic toxicity entry is reported as “No systemic toxicity”. Further, the dose limiting toxicity entry in series [3] is on record as “myelosuppression”.
